From patent US11512079B2, “Heterocycle substituted pyridine derivative antifungal agents” (Amplyx Pharmaceuticals, Inc., priority 2017, dated 2022)
Values after ≈ are worked out from the molar mass of the structure shown.

What was measured:
Assay type in all cases: cell-based
Cryptococcus gattii = assay: In vitro antifungal assay (Example IX), microdilution broth, MIC; conditions: minimum inhibitory concentration (≥50% inhibition), 35° C., 72 h (Cryptococcus), RPMI1640
Protocol: Preparation of Fungal Suspension. C. albicans 90028 and C. neoformans H99 strains were streaked from frozen stocks at −80° C. onto Sabouraud Dextrose Agar (SDA) plates. These were allowed to grow for 24 h (C. albicans) and 48 h (C. neoformans) at 35° C. before using them in the assay. 5-6 individual colonies were picked and diluted into sterile water to obtain a fungal suspension. The cell density of the suspension was determined and the culture diluted with RPMI1640 medium to obtain a fungal suspension of 2.5×10^3 cells/mL. The suspension was used in the MIC measurement as described below.
Preparation of Compound Stocks and Intermediate Dilutions: The compounds were weighed and DMSO was added to prepare a 10 mg/mL stock. The solutions were mixed by vortexing and sonication at 37° C. for 5-10 mins. The resulting solutions were sterile filtered using a PTFE filter, and aliquoted (12 μL or as needed) and stored at −20° C. Intermediate compound dilutions were prepared in sterile polypropylene tubes in 100% DMSO. The compound stock solution was first diluted in DMSO to obtain a concentration of […] to 0.19 μg/mL.
MIC/MEC Measurement: 99 μL 1 of the fungal suspension in RPMI1640 prepared as above was added to each well of a 96-well round bottom assay plate. 1 μL of the intermediate compound dilutions (200-0.19 μg/mL) were added to wells of the plate. This led to a 100-fold dilution of the intermediate dilutions resulting in a final compound concentration of 2-0.0019 μg/mL in the plate. 1 μL of DMSO was added to “No drug” control wells. The solutions were mixed by shaking on a plate shaker for 10 mins and plates incubated at 35° C. for 40-48 h (C. albicans, A. fumigatus, R. pusillus) and 72 h (Cryptococcus). […] This was validated by thorough mixing and reading at 600 nm on a microplate reader. The minimum concentration that led to shortening of hyphae as compared to hyphal growth in DMSO control wells was determined as the minimum effective concentration (MEC) for A. fumigatus and R. pusillus (as read for echinocandins). The use of the MIC and MEC endpoints against yeasts and molds, respectively has been described by Pfaller M A, Duncanson F, Messer S A, Moet G J, Jones R N, Castanheira M. Antimicrob Agents Chemother. 2011. 55(11):5155-8. In vitro activity of a novel broad-spectrum antifungal, E1210, tested against Aspergillus spp. determined by CLSI and EUCAST broth microdilution methods. Results are shown in Table 2, and the letters indicate the following ranges in μg/mL: […]

[1] = test system: Cryptococcus neoformans H99; assay: as above; conditions: minimum inhibitory concentration (≥50% inhibition), 35° C., 72 h, RPMI1640
Outline: (§1)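 Yeast inocula (2.5×10^3 cells/mL, RPMI1640) were exposed to twofold compound series reaching 2-0.0019 μg/mL final, per CLSI yeast methodology. Incubation at 35° C. ran 40-48 h for Candida albicans 90028 and 72 h for Cryptococcus neoformans H99. MIC endpoints were confirmed by absorbance at 600 nm.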

Candida albicans 90028 = assay: as above; conditions: minimum inhibitory concentration (≥50% inhibition), 35° C., 40-48 h, RPMI1640
Outline: as §1

[2] = test system: Rhizomucor pusillus 46342; assay: In vitro antifungal assay (Example IX), microdilution broth, MEC; conditions: minimum effective concentration (shortening of hyphae), 35° C., 40-48 h, RPMI1640
Outline: (§2)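 Read-out is the minimum effective concentration: lowest compound level causing shorter hyphae than in DMSO controls, echinocandin-style. Broth microdilution used conidia or spores harvested from agar plates, cleared of mycelium and clumps, at a final 1-2×10^4 spores/mL in RPMI1640.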

[3] = test system: Aspergillus fumigatus MYA3626; assay: as above; conditions: minimum effective concentration (shortening of hyphae), 35° C., 40-48 h, RPMI1640
Outline: as §2

Compound	MIC (Cryptococcus gattii) [µg/mL]	MIC [1] [µg/mL]	MIC (Candida albicans 90028) [µg/mL]	minimal effective concentration [2] [µg/mL]	minimal effective concentration [3] [µg/mL]
Nc1ncccc1-c1cc(Cc2ccc(Oc3cccc(Cl)c3)nc2)no1 [Example 161, 3-(3-((6-(3-chlorophenoxy)pyridin-3-yl)methyl)isoxazol-5-yl)pyridin-2-amine]	0.01 to 0.1 (≈ 0.0264 to 0.264 µM)	0.01 to 0.1 (≈ 0.0264 to 0.264 µM)	0.01 to 0.1 (≈ 0.0264 to 0.264 µM)	0.1 to 1	0.01 to 0.1
Nc1ncccc1-c1cc(Cc2ccc(OCc3ncccn3)nc2)no1 [compound 46, 3-(3-((6-(pyrimidin-2-ylmethoxy)pyridin-3-yl)methyl)isoxazol-5-yl)pyridin-2-amine]	0.1 to 1 (≈ 0.277 to 2.77 µM)	0.1 to 1 (≈ 0.277 to 2.77 µM)	0.1 to 1 (≈ 0.277 to 2.77 µM)	> 1	0.1 to 1
Nc1ncccc1-c1cc(Cc2ccc(COC3CCCCC3)cc2)no1 [compound 23, 3-(3-(4-((cyclohexyloxy)methyl)benzyl)isoxazol-5-yl)pyridin-2-amine]	0.01 to 0.1 (≈ 0.0275 to 0.275 µM)	0.1 to 1 (≈ 0.275 to 2.75 µM)	0.1 to 1 (≈ 0.275 to 2.75 µM)	0.1 to 1	0.1 to 1
Nc1ncccc1-c1cnn(Cc2ccc(OCc3ccccc3)nc2)c1 [compound 101, 3-(1-((6-(benzyloxy)pyridin-3-yl)methyl)-1H-pyrazol-4-yl)pyridin-2-amine]	0.01 to 0.1 (≈ 0.028 to 0.28 µM)	0.01 to 0.1 (≈ 0.028 to 0.28 µM)	0.1 to 1 (≈ 0.28 to 2.8 µM)	> 1	0.1 to 1
Nc1ncccc1-c1cc(Cc2ccc(COc3cccc(F)n3)cc2)no1 [compound 137, 3-(3-(4-(((6-fluoropyridin-2-yl)oxy)methyl)benzyl)isoxazol-5-yl)pyridin-2-amine]	0.01 to 0.1 (≈ 0.0266 to 0.266 µM)	0.1 to 1 (≈ 0.266 to 2.66 µM)	0.01 to 0.1 (≈ 0.0266 to 0.266 µM)	> 1	0.01 to 0.1
Nc1ncccc1-c1cc(Cc2ccc(Oc3ccccc3F)nc2)no1 [compound 131, 3-(3-((6-(2-fluorophenoxy)pyridin-3-yl)methyl)isoxazol-5-yl)pyridin-2-amine]	0.01 to 0.1 (≈ 0.0276 to 0.276 µM)	0.01 to 0.1 (≈ 0.0276 to 0.276 µM)	0.01 to 0.1 (≈ 0.0276 to 0.276 µM)	0.1 to 1	0.01 to 0.1
Nc1ncccc1-c1cc(Cc2cnc(SCc3ccccc3)nc2)no1 [compound 125, 3-(3-((2-(benzylthio)pyrimidin-5-yl)methyl)isoxazol-5-yl)pyridin-2-amine]	> 1	> 1	0.1 to 1 (≈ 0.266 to 2.66 µM)	> 1	0.1 to 1
Nc1ncccc1-c1cc(Cc2ccc(NCc3ccccc3F)nc2)no1 [compound 74, 5-((5-(2-aminopyridin-3-yl)isoxazol-3-yl)methyl)-N-(2-fluorobenzyl)pyridin-2-amine]	0.01 to 0.1 (≈ 0.0266 to 0.266 µM)	0.01 to 0.1 (≈ 0.0266 to 0.266 µM)	0.01 to 0.1 (≈ 0.0266 to 0.266 µM)	> 1	0.1 to 1
Nc1ncccc1-c1cc(Cc2ccc(CNc3ccc(F)c(F)c3F)cc2)no1 [compound 193, 3-(3-(4-(((2,3,4-trifluorophenyl)amino)methyl)benzyl)isoxazol-5-yl)pyridin-2-amine]	0.1 to 1 (≈ 0.244 to 2.44 µM)	0.1 to 1 (≈ 0.244 to 2.44 µM)	0.1 to 1 (≈ 0.244 to 2.44 µM)	0.1 to 1	0.01 to 0.1
Nc1ncccc1-c1cc(Cc2ccc(OCc3ccoc3)nc2)no1 [compound 48, 3-(3-((6-(furan-3-ylmethoxy)pyridin-3-yl)methyl)isoxazol-5-yl)pyridin-2-amine]	0.01 to 0.1 (≈ 0.0287 to 0.287 µM)	0.01 to 0.1 (≈ 0.0287 to 0.287 µM)	0.01 to 0.1 (≈ 0.0287 to 0.287 µM)	0.1 to 1	0.01 to 0.1
Nc1ncccc1-c1cc(Cc2ccc(OCc3ccccc3F)nc2)no1 [compound 127, 3-(3-((6-((2-fluorobenzyl)oxy)pyridin-3-yl)methyl)isoxazol-5-yl)pyridin-2-amine]	0.01 to 0.1 (≈ 0.0266 to 0.266 µM)	0.01 to 0.1 (≈ 0.0266 to 0.266 µM)	0.01 to 0.1 (≈ 0.0266 to 0.266 µM)	0.1 to 1	≤ 0.01
Nc1ncccc1-c1cc(Cc2ccc(OCc3cscn3)nc2)no1 [compound 41, 3-(3-((6-(thiazol-4-ylmethoxy)pyridin-3-yl)methyl)isoxazol-5-yl)pyridin-2-amine]	0.01 to 0.1 (≈ 0.0274 to 0.274 µM)	0.01 to 0.1 (≈ 0.0274 to 0.274 µM)	0.01 to 0.1 (≈ 0.0274 to 0.274 µM)	0.1 to 1	0.01 to 0.1
Nc1ncccc1-c1cc(Cc2ccc(COc3ccccc3F)cc2)no1 [Example 168, 3-(3-(4-((2-fluorophenoxy)methyl)benzyl)isoxazol-5-yl)pyridin-2-amine]	0.01 to 0.1 (≈ 0.0266 to 0.266 µM)	0.1 to 1 (≈ 0.266 to 2.66 µM)	0.01 to 0.1 (≈ 0.0266 to 0.266 µM)	0.1 to 1	0.01 to 0.1
COc1c(F)cc(F)cc1NCc1ccc(Cc2cc(-c3cccnc3N)on2)cc1 [compound 198, 3-(3-(4-(((3,5-difluoro-2-methoxyphenyl)amino)methyl)benzyl)isoxazol-5-yl)pyridin-2-amine]	> 1	0.1 to 1 (≈ 0.237 to 2.37 µM)	0.1 to 1 (≈ 0.237 to 2.37 µM)	0.1 to 1	> 1
Nc1ncccc1-c1cc(Cc2ccc(-c3ccccn3)cc2)no1 [compound 203, 3-(3-(4-(pyridin-2-yl)benzyl)isoxazol-5-yl)pyridin-2-amine]	0.1 to 1 (≈ 0.305 to 3.05 µM)	0.1 to 1 (≈ 0.305 to 3.05 µM)	> 1	> 1	> 1
Nc1ncccc1-c1cc(Cc2ccc(OCc3ccnc(F)c3)nc2)no1 [Example 154, 3-(3-((6-((2-fluoropyridin-4-yl)methoxy)pyridin-3-yl)methyl)isoxazol-5-yl)pyridin-2-amine]	0.01 to 0.1 (≈ 0.0265 to 0.265 µM)	0.01 to 0.1 (≈ 0.0265 to 0.265 µM)	0.01 to 0.1 (≈ 0.0265 to 0.265 µM)	0.1 to 1	0.01 to 0.1
C#CCOc1ccc(Cc2cc(-c3cccnc3N)on2)cn1 [Example 157, 3-(3-((6-(prop-2-yn-1-yloxy)pyridin-3-yl)methyl)isoxazol-5-yl)pyridin-2-amine]	0.1 to 1 (≈ 0.326 to 3.26 µM)	0.1 to 1 (≈ 0.326 to 3.26 µM)	> 1	0.1 to 1	0.1 to 1
Nc1ncccc1-c1cc(Cc2ccc(C(O)c3ccccc3)cc2)no1 (stereo not shown) [compound 22, (4-((5-(2-aminopyridin-3-yl)isoxazol-3-yl)methyl)phenyl) (phenyl)methanol]	0.01 to 0.1 (≈ 0.028 to 0.28 µM)	0.1 to 1 (≈ 0.28 to 2.8 µM)	0.1 to 1 (≈ 0.28 to 2.8 µM)	> 1	0.1 to 1
Nc1ncccc1-c1cc(Cc2ccc(OCc3cccc(F)n3)nc2)no1 [compound 226, 3-(3-((6-((6-fluoropyridin-2-yl)methoxy)pyridin-3-yl)methyl)isoxazol-5-yl)pyridin-2-amine]	0.1 to 1 (≈ 0.265 to 2.65 µM)	0.01 to 0.1 (≈ 0.0265 to 0.265 µM)	0.01 to 0.1 (≈ 0.0265 to 0.265 µM)	> 1	0.01 to 0.1
Cc1c(OCC(F)(F)F)ccnc1COc1ccc(Cc2cc(-c3cccnc3N)on2)cn1 [compound 217, 3-(3-((6-((3-methyl-4-(2,2,2-trifluoroethoxy)pyridin-2-yl)methoxy)pyridin-3-yl)methyl)isoxazol-5-yl)pyridin-2-amine]	> 1	> 1	> 1	–	> 1
Nc1ncccc1-c1cc(Cc2cnc(Oc3cc(F)cc(F)c3)nc2)no1 [compound 248, 3-(3-((2-(3,5-difluorophenoxy)pyrimidin-5-yl)methyl)isoxazol-5-yl)pyridin-2-amine]	> 1	> 1	> 1	–	0.1 to 1
